Some test systems named below: CCRF-CEM; COLO 205; EKVX; HCT-15; HL-60; HOP-92; KM12; MOLT-4; Malme-3M; NCI-H226; NCI-H460; OVCAR-3; OVCAR-4; OVCAR-5; RXF 393; SF-539; SK-OV-3; 786-0; CAKI-1.
What all share (assay): NCI-60 cell line screen, 48 h

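1) Cells in 96-well plates. 2) Compound, 48 h, 5 concentrations. 3) Linear interpolation between surrounding doses. 4) Unreached endpoint = highest concentration. At the GI50, growth is halved.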 Active and inactive are the calls of the source. Rule as the data show it: active = GI50 up to about 1.1 µM and inactive = higher.

Regarding `Nc1cc2c(cc1[N+](=O)[O-])[nH]c1c(-c3ccccc3)nccc12`, the GI50 in the assay on CCRF-CEM is 7.71 µM (inactive); in the assay on COLO 205, 20.7 µM (inactive); in the assay on EKVX, 21.7 µM (inactive); in the assay on HCT-15, 12 µM; in the assay with HL-60, 11.8 µM (inactive); in the assay with HOP-92, 12 µM (inactive). The GI50 was 15.8 µM (inactive) in the assay with KM12; 4.43 µM (inactive) in the assay with MOLT-4; 17.4 µM (inactive) in the assay on Malme-3M; 17 µM (inactive) with NCI-H226; 15.8 µM (inactive) with NCI-H460; 19.1 µM (inactive) with OVCAR-3. Further, the GI50 is 12.8 µM (inactive) in the assay on OVCAR-4; 27.1 µM (inactive) in the assay with OVCAR-5; 19.9 µM (inactive) with RXF 393; 24.4 µM (inactive) with SF-539; 10.9 µM (inactive) in the assay on SK-OV-3.
Regarding `COc1ccc(C2=CC(c3ccccc3)n3nnnc3N2)cc1` (configuration not stated), the GI50 in the assay on 786-0 is > 100 µM (inactive); in the assay with CAKI-1 it was > 100 µM (inactive); in the assay with CCRF-CEM, > 100 µM (inactive); in the assay with COLO 205, > 100 µM (inactive); in the assay with HCT-15 it was greater than 100 µM; with HL-60, > 100 µM (inactive). For the same compound, the GI50 in the assay on KM12, in the assay with MOLT-4, in the assay on NCI-H226, with NCI-H460, in the assay on OVCAR-3 and with OVCAR-5 was > 100 µM (inactive) each time. Besides, the GI50 in the assay with RXF 393, in the assay on SF-539 and in the assay with SK-OV-3 was > 100 µM (inactive) in each case.
Turning to `O/N=C1/C(=C/c2ccc(F)cc2)CCCC1C(NO)c1ccc(F)cc1` (configuration not stated), the GI50 with 786-0 is 76.2 µM (inactive); in the assay with CAKI-1, 62.7 µM (inactive); in the assay with CCRF-CEM, 33.2 µM (inactive); in the assay on COLO 205 it was 33.5 µM (inactive); in the assay with EKVX it was 38.9 µM (inactive); in the assay with HCT-15, 38 µM. In addition, the GI50 was 25.1 µM (inactive) with HL-60; 22.3 µM (inactive) with KM12; 22.3 µM (inactive) in the assay with MOLT-4; 26.7 µM (inactive) in the assay on Malme-3M; > 100 µM (inactive) in the assay on NCI-H460; 23.7 µM (inactive) in the assay on OVCAR-3. Moreover, the GI50 is 31.5 µM (inactive) in the assay on OVCAR-4, 21.3 µM (inactive) with RXF 393, 42.2 µM (inactive) with SF-539 and > 100 µM (inactive) in the assay with SK-OV-3.
In the case of `Cc1cc(O)nc(NN2C(Cl)C(=O)C2c2cccc(O)c2)n1` (configuration not stated), the GI50 in the assay on CCRF-CEM is 4.63 µM (inactive); in the assay on COLO 205 it was 39.4 µM (inactive); in the assay on EKVX, 17.9 µM (inactive); with HCT-15 it was 5.74 µM; in the assay with HL-60 it was 4.26 µM (inactive); with HOP-92, 4.67 µM (inactive). In addition, the GI50 in the assay with KM12 was 7.1 µM (inactive); with MOLT-4, 5.38 µM (inactive); with NCI-H460, 4.82 µM (inactive); in the assay on OVCAR-3, 3.14 µM (inactive); with OVCAR-4 it was > 100 µM (inactive); in the assay on OVCAR-5, 24.9 µM (inactive). Further, the GI50 with RXF 393 is 3.48 µM (inactive); with SF-539, 2.74 µM (inactive).
Regarding `Cc1cccc(/N=C2\NC(=O)C(CC(=O)Nc3ccc(C)cc3C)S2)c1` (configuration not stated), the GI50 in the assay on 786-0 is > 100 µM (inactive); with CAKI-1, 60.4 µM (inactive); with CCRF-CEM, 92 µM (inactive); in the assay with EKVX it was 47.1 µM (inactive); with HCT-15, greater than 100 µM; with HL-60, > 100 µM (inactive). The GI50 with HOP-92 is 55.7 µM (inactive); with MOLT-4, 40.4 µM (inactive); with Malme-3M it was > 100 µM (inactive); with NCI-H226, 84.3 µM (inactive); with NCI-H460, > 100 µM (inactive); with OVCAR-3 it was 69 µM (inactive). Further, the GI50 in the assay on OVCAR-4 was 48.5 µM (inactive); with OVCAR-5, 88.1 µM (inactive); in the assay on RXF 393, > 100 µM (inactive); in the assay with SF-539, > 100 µM (inactive).
For the compound `CC(=O)OCC1OC(Nc2nc(O)n(C)c(=O)c2-c2csc(N)n2)C(OC(C)=O)C(OC(C)=O)C1OC(C)=O` (configuration not stated), the GI50 in the assay on 786-0 was > 100 µM (inactive); with CAKI-1, > 100 µM (inactive); with CCRF-CEM it was 67.6 µM (inactive); in the assay on COLO 205, > 100 µM (inactive); in the assay on HCT-15 it was greater than 100 µM; in the assay with HL-60, 70 µM (inactive). Also, the GI50 in the assay with HOP-92, in the assay with KM12, with MOLT-4, in the assay on Malme-3M, in the assay with NCI-H226 and with NCI-H460 was > 100 µM (inactive) in each case. Besides, the GI50 in the assay on OVCAR-3, in the assay with OVCAR-4, in the assay on OVCAR-5, with SF-539 and in the assay with SK-OV-3 was > 100 µM (inactive) throughout.
Turning to `COc1ccc2[nH]c3c(C)c4cc[n+](C)cc4c(C)c3c2c1`, the GI50 is 1.72 µM (inactive) with CCRF-CEM; 1.16 µM (inactive) with EKVX; 22 µM (inactive) in the assay on HL-60; 3.21 µM (inactive) in the assay on HOP-92; 1.62 µM (inactive) with KM12; 1.06 µM (active) in the assay on Malme-3M. Further, the GI50 in the assay with NCI-H226 is 0.301 µM (active); in the assay with NCI-H460, 1.64 µM (inactive); with OVCAR-3, 3.09 µM (inactive); in the assay on OVCAR-4 it was 3.37 µM (inactive); with OVCAR-5, 9.51 µM (inactive); in the assay on RXF 393, 1.32 µM (inactive). The GI50 in the assay with SF-539 was 0.345 µM (active); with SK-OV-3, 6.78 µM (inactive).
For `O=[N+]([O-])c1cccc(C2=NOC3CCCC23)c1` (configuration not stated), the GI50 in the assay on 786-0 was > 100 µM (inactive); with CAKI-1 it was < 0.01 µM (active); in the assay on CCRF-CEM, > 100 µM (inactive); in the assay on COLO 205, > 100 µM (inactive); in the assay with EKVX, > 100 µM (inactive); in the assay with HCT-15, greater than 100 µM. Further, the GI50 with HL-60, in the assay with HOP-92, with KM12, with MOLT-4, with Malme-3M and with NCI-H226 was > 100 µM (inactive) in each case. Moreover, the GI50 in the assay with NCI-H460, in the assay with OVCAR-3, in the assay on OVCAR-4, with OVCAR-5, with SF-539 and in the assay with SK-OV-3 was > 100 µM (inactive) in each case.
Consider `CCOC(=O)C12CC1(C(=O)OCC)C1CCC2C1` (configuration not stated), for which the GI50 with 786-0 was > 100 µM (inactive); with CAKI-1, > 100 µM (inactive); in the assay on CCRF-CEM, > 100 µM (inactive); in the assay on COLO 205, > 100 µM (inactive); with HCT-15 it was greater than 100 µM; in the assay on HL-60 it was 71.6 µM (inactive). For the same compound, the GI50 in the assay on HOP-92 is 23.8 µM (inactive); with MOLT-4 it was 90.6 µM (inactive); in the assay with Malme-3M, 91.8 µM (inactive); with NCI-H226, > 100 µM (inactive); in the assay on NCI-H460 it was > 100 µM (inactive); in the assay on OVCAR-3, 97.3 µM (inactive). Besides, the GI50 in the assay with OVCAR-4, in the assay with OVCAR-5 and in the assay on SK-OV-3 was > 100 µM (inactive) throughout.
Take `COc1ccc(/C(=N\NC(=O)NN)C(c2ccc(OC)cc2)C2(O)C(=O)Nc3c(Cl)cc(Cl)cc32)cc1` (configuration not stated): the GI50 with 786-0 is 61.4 µM (inactive); with CCRF-CEM it was 13.8 µM (inactive); in the assay with COLO 205 it was > 100 µM (inactive); in the assay with EKVX, > 100 µM (inactive); in the assay with HL-60, 13.8 µM (inactive); in the assay on HOP-92, > 100 µM (inactive). Further, the GI50 was > 100 µM (inactive) with KM12; 5.93 µM (inactive) in the assay with MOLT-4; > 100 µM (inactive) in the assay with Malme-3M; > 100 µM (inactive) with NCI-H226; > 100 µM (inactive) in the assay on NCI-H460; > 100 µM (inactive) in the assay on OVCAR-3. In addition, the GI50 with OVCAR-4, in the assay with OVCAR-5 and in the assay on RXF 393 was > 100 µM (inactive) in each case.
As for `COC(=O)C1=C(C)N(NC(=O)c2ccccc2)C2(O)CCCC(=O)C12C` (configuration not stated), the GI50 in the assay on CAKI-1 was > 100 µM (inactive); in the assay with COLO 205, > 100 µM (inactive); in the assay on HCT-15 it was greater than 100 µM; with HOP-92, > 100 µM (inactive); with KM12, > 100 µM (inactive); with Malme-3M it was > 100 µM (inactive). Besides, the GI50 in the assay on NCI-H226 was 4.37 µM (inactive); in the assay on OVCAR-3, > 100 µM (inactive); in the assay with OVCAR-4, > 100 µM (inactive); in the assay on OVCAR-5 it was > 100 µM (inactive); in the assay with RXF 393, > 100 µM (inactive); with SF-539, > 100 µM (inactive). The GI50 in the assay with SK-OV-3 was > 100 µM (inactive).
As to `C/C(=C1/N=C(c2cc([N+](=O)[O-])ccc2Cl)N(C2=CC=C(Cl)CC2)C1=O)c1cc2ccccc2oc1=O`, the GI50 in the assay on CAKI-1 was 32.7 µM (inactive); in the assay with CCRF-CEM, 40.3 µM (inactive); in the assay with COLO 205 it was 47.6 µM (inactive); with EKVX it was > 100 µM (inactive); in the assay on HL-60 it was 20 µM (inactive); in the assay on KM12 it was 19.9 µM (inactive). For the same compound, the GI50 with MOLT-4 was 54.6 µM (inactive); in the assay with Malme-3M, 28.5 µM (inactive); in the assay on NCI-H226, 29 µM (inactive); in the assay with NCI-H460, 28 µM (inactive); in the assay on OVCAR-3 it was 36.8 µM (inactive); with OVCAR-4 it was 24.4 µM (inactive). Also, the results for the GI50 in the assay with OVCAR-5, with SF-539 and in the assay on SK-OV-3 were 41.5 µM (inactive), 10.7 µM (inactive) and > 100 µM (inactive), respectively.
With `CC12CCC(Br)C(C)(C)C1CC=C1C(=O)OCC1O2` (configuration not stated), the GI50 in the assay on 786-0 was 19.4 µM (inactive); in the assay on CAKI-1, 11.6 µM (inactive); with COLO 205, 18.2 µM (inactive); in the assay with EKVX it was 16.5 µM (inactive); in the assay on HCT-15, 12.1 µM; in the assay with HL-60, 1.84 µM (inactive). Also, the GI50 with HOP-92 was 11.9 µM (inactive); in the assay on KM12, 14.2 µM (inactive); with MOLT-4 it was 7.05 µM (inactive); in the assay with NCI-H226 it was 10.1 µM (inactive); in the assay with NCI-H460, 14.6 µM (inactive); in the assay on OVCAR-3 it was 16.9 µM (inactive). Moreover, the GI50 was 16 µM (inactive) with OVCAR-4; 18.7 µM (inactive) in the assay on OVCAR-5; 11.1 µM (inactive) in the assay with RXF 393; 60.8 µM (inactive) with SF-539; 9.06 µM (inactive) with SK-OV-3.

(Values after ChEMBL document CHEMBL1201862, “PubChem BioAssay data set” (2004).)
